Literature values in patent US20210268271A1, “SYSTEMS AND METHODS FOR VISCERAL NEUROMODULATION” (priority 2018, published 2021).

Legend:
[1] = tested on: sympathetic ganglia
[2] = tested on: TRPV1 expressing cardiac nerve endings; conditions: in vivo
[3] = tested on: deep cardiac plexus

Row | Compound | duration of block [3] | also measured
1 | C[C@H](CCCC(C)(C)O)[C@H]1CC[C@H]2[C@@H]3CC=C4C[C@@H](O)CC[C@]4(C)[C@H]3CC[C@]12C [25-OH-cholesterol] |  | relative potency among cholesterol oxides [1]: most potent
2 | C=C(C)[C@]12C[C@@H](C)[C@@]34O[C@](Cc5ccccc5)(O[C@@H]1[C@@H]3C=C(COC(=O)Cc1ccc(O)c(OC)c1)C[C@]1(O)C(=O)C(C)=C[C@@H]41)O2 [RTX, resiniferatoxin] |  | duration of complete ablation of TRPV1 expressing cardiac nerve endings [2]: over 10 weeks
3 | CCCCN1CCCCC1C(=O)Nc1c(C)cccc1C (stereo not shown) [bupivacaine] | approximately 2 hours | 
4 | CCN(CC)CC(=O)Nc1c(C)cccc1C [lidocaine] | approximately 2 hours | 
